From patent US10703764B2, “Benzopiperazine compositions as BET bromodomain inhibitors” (FORMA Therapeutics, Inc., priority 2013, dated 2020)

Key:
BRD4 BD1 = target: T1, BRD4 BD1 (Homo sapiens, UniProt O60885); test: AlphaScreen binding assay, BRD4 Bromodomain 1
T1 construct: made in house
Outline: (§1)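 An AlphaScreen competition format was used with His-BRD4 BD1 or BD2 and biotin-H4 K5/8/12/16-acetyl peptide, each at matched final levels of 50 nM (BD1) or 100 nM (BD2). Incubation in HEPES/NaCl buffer with 0.1% BSA and 0.01% Triton X-100 ran ≥1 h before IC50 determination.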

MV4-11 cells = test: Oncology cell growth assay (3-day proliferation, CellTiter-Glo); assay type: cell-based; conditions: Homo sapiens, MV4-11, 72 h, AML cell line MV4-11, 72 hours, compounds grouped by IC50 range, read-out: MV4-11 IC50 (inhibition of proliferation, gIC50)
Outline: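 MV4-11 AML cells (RPMI 1640, 10% FBS) plated at 3000 cells/well and exposed 72 h to compound at final 10 to 0.0045 μM (3-fold series). Viability read by CellTiter-Glo luminescence; gIC50 from four-parameter logistic fit between DMSO control and no-cell background.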

BRD4 BD2 = target: T2, BRD4 BD2 (Homo sapiens, UniProt O60885); test: AlphaScreen binding assay, BRD4 Bromodomain 2
T2 construct: made in house
Outline: as §1

SMILES	IC50 (BRD4 BD1) [nM]	IC50 (MV4-11 cells) [nM]	IC50 (BRD4 BD2) [nM]
Cc1noc(C)c1Cn1cc(-c2ccc3c(c2)N(C(=O)OC(C)C)C[C@H](C)N3C(=O)C2CC2)cn1 [Example I-617]	100 to 1000	100 to 500	50 to 500
CC(C)OC(=O)N1C[C@H](C)N(C(=O)C2CC2)c2ccc(-c3cnn(CC4CCC4)c3)cc21 [Example I-618]	1000 to 10000	100 to 500	> 500
CC(C)OC(=O)N1C[C@H](C)N(C(=O)C2CC2)c2ccc(-c3cnn(CC(F)(F)F)c3)cc21 [Example I-619]	100 to 1000	100 to 500	50 to 500
CC(C)OC(=O)N1C[C@H](C)N(C(=O)C2CC2)c2ccc(-c3cnn(CC4(C)COC4)c3)cc21 [Example I-620]	100 to 1000	100 to 500	50 to 500
CC(C)OC(=O)N1C[C@H](C)N(C(=O)C2CC2)c2ccc(-c3cnn(CCC(N)=O)c3)cc21 [Example I-621]	100 to 1000	> 500	50 to 500
CC(C)OC(=O)N1C[C@H](C)N(C(=O)C2CC2)c2ccc(-c3cnn(CC4CCOCC4)c3)cc21 [Example I-623]	100 to 1000	100 to 500	50 to 500
COC(=O)N1c2ccc(-c3cnn(CC4CCS(=O)(=O)CC4)c3)cc2N(C(=O)OC(C)C)C[C@@H]1C [Example I-624]	100 to 1000	> 500	50 to 500
COC(=O)N1c2ccc(-c3cnn(CC(=O)N(C)C4CC4)c3)cc2N(C(=O)OC(C)C)C[C@@H]1C [Example I-625]	100 to 1000	> 500	50 to 500
COC(=O)N1c2ccc(-c3cnn(CCN4CCCS4(=O)=O)c3)cc2N(C(=O)OC(C)C)C[C@@H]1C [Example I-626]	100 to 1000	> 500	50 to 500
COC(=O)N1c2ccc(-c3cnn(CCn4ccnc4)c3)cc2N(C(=O)OC(C)C)C[C@@H]1C [Example I-627]	100 to 1000	> 500	50 to 500
COC(=O)N1c2ccc(-c3cnn(CCN4CCCC4=O)c3)cc2N(C(=O)OC(C)C)C[C@@H]1C [Example I-628]	100 to 1000	100 to 500	50 to 500
COC(=O)N1c2ccc(-c3cnn(Cc4c[nH]cn4)c3)cc2N(C(=O)OC(C)C)CC1C (stereo not drawn) [Example I-631]	100 to 1000	> 500	50 to 500
COC(=O)N1c2ccc(-c3cnn(Cc4cncnc4)c3)cc2N(C(=O)OC(C)C)C[C@@H]1C [Example I-632]	100 to 1000	100 to 500	50 to 500
COC(=O)N1c2ccc(-c3cnn(Cc4cnccn4)c3)cc2N(C(=O)OC(C)C)C[C@@H]1C [Example I-633]	100 to 1000	100 to 500	50 to 500
COC(=O)N1c2ccc(-c3cnn(Cc4c(C)noc4C)c3)cc2N(C(=O)OC(C)C)C[C@@H]1C [Example I-634]	100 to 1000	100 to 500	50 to 500
COC(=O)N1c2ccc(-c3cnn(CC(F)(F)F)c3)cc2N(C(=O)OC(C)C)C[C@@H]1C [Example I-636]	100 to 1000	> 500	> 500
COC(=O)N1c2ccc(-c3cnn(CC4(C)COC4)c3)cc2N(C(=O)OC(C)C)C[C@@H]1C [Example I-637]	100 to 1000	100 to 500	50 to 500
COC(=O)N1c2ccc(-c3cnn(CCC(N)=O)c3)cc2N(C(=O)OC(C)C)C[C@@H]1C [Example I-638]	100 to 1000	> 500	50 to 500
COC(=O)N1c2ccc(-c3cnn(Cc4ccncc4)c3)cc2N(C(=O)OC(C)C)C[C@@H]1C [Example I-640]	100 to 1000	> 500	50 to 500
COC(=O)N1c2ccc(-c3cnn(CC4CCOCC4)c3)cc2N(C(=O)OC(C)C)C[C@@H]1C [Example I-641]	100 to 1000	100 to 500	50 to 500
CC(=O)N1c2ccc(-c3cnn(CC4COC4)c3)cc2N(C(=O)OC(C)C)C[C@@H]1C [Example I-642]	100 to 1000	100 to 500	50 to 500

The remaining lines, values ahead:

IC50 (BRD4 BD1) [nM]	IC50 (MV4-11 cells) [nM]	IC50 (BRD4 BD2) [nM]	SMILES
100 to 1000	100 to 500	50 to 500	CC(=O)N1c2ccc(-c3cnn(CCn4ccnc4)c3)cc2N(C(=O)OC(C)C)C[C@@H]1C [Example I-598]
100 to 1000	100 to 500	< 50	CC(=O)N1c2ccc(-c3cnn(CC(=O)N4CCCCC4)c3)cc2N(C(=O)OC(C)C)C[C@@H]1C [Example I-599]
< 100	100 to 500	< 50	CC(=O)N1c2ccc(-c3cnn(CC4(CO)COC4)c3)cc2N(C(=O)OC(C)C)C[C@@H]1C [Example I-600]
100 to 1000	100 to 500	< 50	CC(=O)N1c2ccc(-c3cnn(Cc4c[nH]cn4)c3)cc2N(C(=O)OC(C)C)CC1C (stereo not drawn) [Example I-601]
100 to 1000	100 to 500	< 50	CC(=O)N1c2ccc(-c3cnn(Cc4c(C)noc4C)c3)cc2N(C(=O)OC(C)C)C[C@@H]1C [Example I-602]
100 to 1000	100 to 500	50 to 500	CC(=O)N1c2ccc(-c3cnn(CC4CCC4)c3)cc2N(C(=O)OC(C)C)C[C@@H]1C [Example I-603]
< 100	100 to 500	50 to 500	CC(=O)N1c2ccc(-c3cnn(CC(F)(F)F)c3)cc2N(C(=O)OC(C)C)C[C@@H]1C [Example I-604]
100 to 1000	100 to 500	50 to 500	CC(=O)N1c2ccc(-c3cnn(CC4(C)COC4)c3)cc2N(C(=O)OC(C)C)C[C@@H]1C [Example I-605]
100 to 1000	100 to 500	< 50	CC(=O)N1c2ccc(-c3cnn(CCC(N)=O)c3)cc2N(C(=O)OC(C)C)C[C@@H]1C [Example I-606]
100 to 1000	100 to 500	50 to 500	CC(=O)N1c2ccc(-c3cnn(CC#N)c3)cc2N(C(=O)OC(C)C)C[C@@H]1C [Example I-607]
100 to 1000	100 to 500	50 to 500	CC(=O)N1c2ccc(-c3cnn(CC4CCOCC4)c3)cc2N(C(=O)OC(C)C)C[C@@H]1C [Example I-608]
100 to 1000	> 500	50 to 500	CC(C)OC(=O)N1C[C@H](C)N(C(=O)C2CC2)c2ccc(-c3cnn(CC4CCS(=O)(=O)CC4)c3)cc21 [Example I-609]
100 to 1000	> 500	50 to 500	CC(C)OC(=O)N1C[C@H](C)N(C(=O)C2CC2)c2ccc(-c3cnn(CCN4CCCS4(=O)=O)c3)cc21 [Example I-611]
100 to 1000	> 500	50 to 500	CC(C)OC(=O)N1C[C@H](C)N(C(=O)C2CC2)c2ccc(-c3cnn(CCn4ccnc4)c3)cc21 [Example I-612]
100 to 1000	100 to 500	50 to 500	CC(C)OC(=O)N1C[C@H](C)N(C(=O)C2CC2)c2ccc(-c3cnn(CC4(CO)COC4)c3)cc21 [Example I-615]
100 to 1000	100 to 500	50 to 500	CC(C)OC(=O)N1CC(C)N(C(=O)C2CC2)c2ccc(-c3cnn(Cc4c[nH]cn4)c3)cc21 (stereo not drawn) [Example I-616]
< 100	100 to 500	50 to 500	COC(=O)N1c2ccc(-c3cnn(CC4(CO)COC4)c3)cc2N(C(=O)OC(C)C)C[C@@H]1C [Example I-630]
